Experimental data published in patent US9127024B2 (Intrexon Corporation, priority 2013, dated 2015).
Read-outs that look alike come from different tables or passages of the source. Values belong to the compound of their own block, whether it stands above or below them.

Columns and labels:
[1] = Pharmacokinetic (PK) study, oral gavage, plasma LC-MS/MS; details: for AUC(0-t) / Cmax / Tmax / half-life: female, Sprague Dawley, rat, po, 10 mg/kg; for Clearance: oral clearance
[2] = target: RheoSwitch® (CHO-K1_RS-1 cells, firefly Luciferase reporter) (Choristoneura fumiferana, UniProt O77240); test: in vitro gene switch assay (fLUC Luciferase expression, potency screen); type: cell-based
Excerpt: Gene switch assays are disclosed, e.g., in U.S. Pat. Nos. 8,076,517; 7,456,315; 7,304,161; and 6,258,603.
CHO-K1 cells were stably transfected with a plasmid (RS-1, FIG. 1) coding for firefly Luciferase (fLUC) under the control of the RheoSwitch® resulting in the stable cell line CHO-K1_RS-1. A master cell bank was created containing approximately 100 vials at 5×10^6 cells per vial. One vial of CHO-K1_RS-1 was thawed and cultured for two weeks prior to each in vitro potency screening.
Twenty-four (24) hours prior to treatment with the control and test compounds the CHO-K1_RS-1 cells were seeded into white-opaque 384-well cell culture plates at 3,600 cells per well in 30 μl of culture medium. The cells were incubated in a humidified CO2 incubator at 37° C. until compound treatment.
Compounds were prepared at 25 mM in 100% dry DMSO and stored at room temperature in sealed 1 ml tubes prior to subsequent dilution and assay. On the day of cell treatment the tubes containing the control and test compounds were sorted and the ligands transferred to a 96-well polypropylene plate for subsequent dilution. The compounds were diluted in 100% dry DMSO in an 8-point, 10-fold dilution series ranging from 25 mM to 2.5 nM using the Biomek FX automated liquid handler.
The diluted compounds were then transferred to each well of 384-well polypropylene plate in quadruplicate resulting in a single 384-well plate with four replicates of each compound dilution in a different quadrant of the plate. Each well on the 384-well plate received 20 μl of diluted compound. The 384-well plates containing diluted compound and the plates containing cells in culture were loaded onto the Biomek FX and 30 nl of compound was delivered to each well containing cells using a 384-pin V&P Scientific Pin Tool. The resulting 1000-fold dilution (30 nl to 30 μl) generated a final dosing range of 25 μM to 2.5 pM in 0.1% DMSO. Two replicate plates were produced to supply a dedicated plate for the Luciferase expression assay and the APH cell viability assay.
The cells were incubated with the compound for 24 hours in a humidified CO2 incubator at 37° C. Following incubation, the cells were assayed for Luciferase expression (fLUC assay) using the Steady Glo assay from Promega. Cells were equilibrated to room temperature for 15 minutes prior to reagent addition. Thirty micro liters (30 μl) of assay reagent was added to each well of the 384-well plate using the Biomek FX. The reagent was incubated with the cells for 10-120 minutes prior to reading on a Molecular Devices Spectramax L luminometer. The assay reagents were prepared as per the manufacturer's instructions.
The Luciferase expression data was normalized to the baseline signal from cells treated with DMSO alone. The ratio of signal from treated cells to vehicle-treated cells was plotted and non-linear regress was performed using Graph Pad Prism software. EC50, (log)EC50 and Hill slope data was generated. Reporter gene expression, e.g., luciferase expression, serves as a proxy for the expression of a gene of interest. See, e.g., US 2009/0123441 and WO 2011/119773.

[3] = female Sprague Dawley rats, oral gavage 10 mg/kg, Capryol 90/Triacetin (1:1, v/v)
[4] = read-out: fLUC assay EC50, 24 hours with compound, 25 μM to 2.5 pM, figure in parentheses after a value not defined
[5] = AUC0−t, female Sprague Dawley rats, oral gavage 10 mg/kg, Capryol 90/Triacetin (1:1, v/v)
[6] = Cmax, female Sprague Dawley rats, oral gavage 10 mg/kg, Capryol 90/Triacetin (1:1, v/v)
[7] = Tmax, female Sprague Dawley rats, oral gavage 10 mg/kg, Capryol 90/Triacetin (1:1, v/v)
[8] = half-life, female Sprague Dawley rats, oral gavage 10 mg/kg, Capryol 90/Triacetin (1:1, v/v)
[9] = read-out: fLUC assay EC50 Run 1, 24 hours with compound, Run 1
[10] = read-out: fLUC assay EC50 Run 2, 24 hours with compound, Run 2

Chain of RheoSwitch® (CHO-K1_RS-1 cells, firefly Luciferase reporter) (O77240 1-513): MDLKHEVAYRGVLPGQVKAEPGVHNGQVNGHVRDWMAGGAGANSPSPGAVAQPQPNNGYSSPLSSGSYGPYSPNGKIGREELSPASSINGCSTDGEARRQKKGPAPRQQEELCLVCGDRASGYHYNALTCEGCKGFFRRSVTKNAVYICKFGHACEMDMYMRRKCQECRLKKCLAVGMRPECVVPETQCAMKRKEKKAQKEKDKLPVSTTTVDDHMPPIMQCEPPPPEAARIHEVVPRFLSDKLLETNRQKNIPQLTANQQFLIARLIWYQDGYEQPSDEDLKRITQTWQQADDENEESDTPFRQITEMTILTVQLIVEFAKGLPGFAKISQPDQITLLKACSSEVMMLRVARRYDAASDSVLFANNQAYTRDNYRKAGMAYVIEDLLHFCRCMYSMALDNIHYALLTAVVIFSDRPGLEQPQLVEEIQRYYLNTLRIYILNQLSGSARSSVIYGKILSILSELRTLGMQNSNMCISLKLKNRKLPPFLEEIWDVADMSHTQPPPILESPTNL

Structure (SMILES): Cc1cc(C)cc(C(=O)N(NC(=O)c2ccc3c(c2C)OCCOB3O)C(C)(C)C)c1
AUC(0-t) [1]: 13200 ng·h/mL | Cmax [1]: 1280 ng/mL | Tmax [1]: 2.3 h | half-life [1]: 11 h | Clearance [1, 3]: 10.2 mL/min/kg | EC50 [2, 4]: 259 nM

AUC(0-t) [1, 5]: 773 ng·h/mL | Cmax [1, 6]: 255 ng/mL | Tmax [1, 7]: 4 h | half-life [1, 8]: 2.1 h | Clearance [1, 3]: 213.1 mL/min/kg
Structure (SMILES): CCC[C@@H](N(NC(=O)c1cccc(OC)c1C)C(=O)c1cc(C)cc(C)c1)C(C)(C)C [Cpd. A, reference compound]

AUC(0-t) [1, 5]: 888 ng·h/mL | Cmax [1, 6]: 116 ng/mL | Tmax [1, 7]: 3.7 h | half-life [1, 8]: 5.4 h | Clearance [1, 3]: 183.83 mL/min/kg
Structure (SMILES): CCC[C@@H](N(NC(=O)c1cccc(OC)c1CC)C(=O)c1cc(C)cc(C)c1)C(C)(C)C [Cpd. B, reference compound]

Structure (SMILES): Cc1cc(C)cc(C(=O)N(NC(=O)c2cccc(B(O)O)c2F)C(C)(C)C)c1 [Cpd. No. 5]
AUC(0-t) [1, 5]: 18800 ng·h/mL | Cmax [1, 6]: 1890 ng/mL | Tmax [1, 7]: 4 h | half-life [1, 8]: 4 h | Clearance [1, 3]: 8.88 mL/min/kg | EC50 [2, 4]: 300 nM

Structure (SMILES): COCc1ccc(C(=O)NN(C(=O)c2cc(C)cc(C)c2)C(C)(C)C)c(F)c1B(O)O [Cpd. No. 88, (3-(2-(tert-butyl)-2-(3,5-dimethylbenzoyl)hydrazine-1-carbonyl)-2-fluoro-6-(methoxymethyl)phenyl)boronic acid]
EC50 [2, 9]: 667 nM | EC50 [2, 10]: 840 nM

Structure (SMILES): Cc1cc(C)cc(C(=O)N(NC(=O)c2ccc3c(c2F)COB3O)C(c2ccccc2)C(C)(C)C)c1 (stereo not shown) [Cpd. No. 89, N′-(2,2-dimethyl-1-phenylpropyl)-N′-(3,5-dimethylbenzoyl)-4-fluoro-1-hydroxy-1,3-dihydrobenzo[c][1,2]oxaborole-5-carbohydrazide]
EC50 [2, 9]: ~362 nM | EC50 [2, 10]: ~303 nM

Structure (SMILES): Cc1cc(C)cc(C(=O)N(NC(=O)c2ccc3c(c2C)OCCNB3O)C(C)(C)C)c1 [Cpd. No. 91, N′-(tert-butyl)-N′-(3,5-dimethylbenzoyl)-1-hydroxy-6-methyl-1,2,3,4-tetrahydrobenzo[f][1,4,5]oxazaborepine-7-carbohydrazide]
EC50 [2, 9]: 132 nM | EC50 [2, 10]: 86.9 nM

Structure (SMILES): CC[C@@H](N(NC(=O)c1ccc2c(c1C)OCCNB2O)C(=O)c1cc(C)cc(C)c1)C(C)(C)C [Cpd. No. 92, (R)-N′-(3,5-dimethylbenzoyl)-N′-(2,2-dimethylpentan-3-yl)-1-hydroxy-6-methyl-1,2,3,4-tetrahydrobenzo[f][1,4,5]oxazaborepine-7-carbohydrazide]
EC50 [2, 9]: 187 nM | EC50 [2, 10]: 116 nM

Structure (SMILES): CCC[C@@H](N(NC(=O)c1ccc([B-](F)(F)F)cc1F)C(=O)c1cc(C)cc(C)c1)C(C)(C)C [Cpd. No. 93, potassium (R)-(4-(2-(3,5-dimethylbenzoyl)-2-(2,2-dimethylhexan-3-yl)hydrazine-1-carbonyl)-3-fluorophenyl)trifluoroborate]
EC50 [2, 9]: 66.8 nM | EC50 [2, 10]: 122 nM

Structure (SMILES): COCc1ccc(C(=O)NN(C(=O)c2cc(C)cc(C)c2)C(C)(C)C)c(F)c1B1OC(C)(C)C(C)(C)O1 [Cpd. No. 94, N′-(tert-butyl)-N′-(3,5-dimethylbenzoyl)-2-fluoro-4-(methoxymethyl)-3-(4,4,5,5-tetramethyl-1,3,2-dioxaborolan-2-yl)benzohydrazide]
EC50 [2, 9]: 778 nM | EC50 [2, 10]: 1650 nM

Structure (SMILES): CCC[C@@H](N(NC(=O)c1ccc(B(O)O)cc1C(C)C)C(=O)c1cc(C)cc(C)c1)C(C)(C)C [compound 10]
EC50 [2, 4]: 1240 nM

Structure (SMILES): Cc1cc(C)cc(C(=O)N(NC(=O)c2ccc(B(O)O)cc2C(C)C)C(C)(C)C)c1 [compound 11]
EC50 [2, 4]: 14100 nM

Structure (SMILES): Cc1cc(C)cc(C(=O)N(NC(=O)c2ccc(B(O)O)cc2F)C(C)(C)C)c1 [compound 12]
EC50 [2, 4]: 271 nM

Structure (SMILES): [2H]C([2H])([2H])c1cc(C(=O)N(NC(=O)c2ccc(B(O)O)cc2F)[C@H](CC)C(C)(C)C)cc(C([2H])([2H])[2H])c1 [compound 15]
EC50 [2, 4]: 52.3 nM

Structure (SMILES): CC[C@@H](N(NC(=O)c1ccc(B(O)O)cc1Cl)C(=O)c1cc(C)cc(C)c1)C(C)(C)C [compound 20]
EC50 [2, 4]: 183 nM

Structure (SMILES): Cc1cc(C)cc(C(=O)N(NC(=O)c2ccc(B(O)O)cc2Cl)C(C)(C)C)c1 [compound 21]
EC50 [2, 4]: 1630 nM

Structure (SMILES): CCC[C@@H](N(NC(=O)c1ccc(CCCB2OC(C)(C)C(C)(C)O2)c(OC(F)F)c1C)C(=O)c1cc(C)cc(C)c1)C(C)(C)C [compound 30]
EC50 [2, 4]: 50.8 nM

Structure (SMILES): CC[C@@H](N(NC(=O)c1cccc(OC)c1C)C(=O)c1cc(C)cc(B2OC(C)(C)C(C)(C)O2)c1)C(C)(C)C [compound 39]
EC50 [2, 4]: 168 nM

Structure (SMILES): CCc1c(OC)cccc1C(=O)NN(C(=O)c1ccc(B(O)O)cc1)C(C)(C)C [compound 40]
EC50 [2, 4]: 5250 nM

Structure (SMILES): Cc1cc(C)cc(C(=O)N(NC(=O)c2cccc(B3OC(C)(C)C(C)(C)O3)c2C)C(C)(C)C)c1 [compound 43]
EC50 [2, 4]: 1420 nM

Structure (SMILES): CC[C@@H](N(NC(=O)c1ccc2c(c1)B(O)OC2)C(=O)c1cc(C)cc(C)c1)C(C)(C)C [compound 52]
EC50 [2, 4]: 287 nM

Structure (SMILES): CC[C@H](N(NC(=O)c1ccc2c(c1)B(O)OC2)C(=O)c1cc(C)cc(C)c1)C(C)(C)C [compound 53]
EC50 [2, 4]: 1000 nM

Structure (SMILES): [2H]C([2H])([2H])c1cc(C(=O)N(NC(=O)c2ccc3c(c2F)B(O)OC3)[C@H](CC)C(C)(C)C)cc(C([2H])([2H])[2H])c1 [compound 60]
EC50 [2, 4]: 123 nM

Structure (SMILES): Cc1cc(C)cc(C(=O)N(CC(C)(C)C)NC(=O)c2ccc3c(c2C)OCCOB3O)c1 [compound 71]
EC50 [2, 4]: 430 nM

Structure (SMILES): Cc1cc(Cl)cc(C(=O)N(CC(C)(C)C)NC(=O)c2ccc3c(c2C)OCCOB3O)c1 [compound 72]
EC50 [2, 4]: 443 nM

Structure (SMILES): CCC(C)(C)N(NC(=O)c1ccc2c(c1C)OCCOB2O)C(=O)c1cc(C)cc(C)c1 [compound 76]
EC50 [2, 4]: 358 nM

Structure (SMILES): [2H]C([2H])([2H])c1cc(C(=O)N(NC(=O)c2ccc3c(c2C)OCCOB3O)C(C)(C)CC)cc(C([2H])([2H])[2H])c1 [compound 77]
EC50 [2, 4]: 181 nM

Structure (SMILES): CC[C@H](N(NC(=O)c1ccc2c(c1C)OCCOB2O)C(=O)c1cc(C)cc(C)c1)C(C)(C)C [compound 80]
EC50 [2, 4]: 867 nM

Structure (SMILES): [2H]C([2H])([2H])c1cc(C(=O)N(NC(=O)c2ccc3c(c2C)OCCOB3O)[C@@H](CC)C(C)(C)C)cc(C([2H])([2H])[2H])c1 [compound 81]
EC50 [2, 4]: 564 nM

Structure (SMILES): CCOCc1ccc(C(=O)NN(C(=O)c2cc(C)cc(C)c2)[C@H](CC)C(C)(C)C)c(F)c1B(O)O [compound 90, (R)-(3-(2-(3,5-dimethylbenzoyl)-2-(2,2-dimethylpentan-3-yl)hydrazine-1-carbonyl)-6-(ethoxymethyl)-2-fluorophenyl)boronic acid]
EC50 [2, 9]: 389 nM | EC50 [2, 10]: ~266 nM
